Results reported in US20060069132A1, “Azolecarboxamide herbicides” (priority 2004, published 2006).

Experiments:
ducksalad [1] = experiment: Test B flooded paddy test; format: in vivo, Heteranthera limosa; conditions: 1000 g ai/ha, scale 0 to 100 (0 no effect, 100 complete control)
Outline: (§1)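 Paddy species grown to the 2-leaf stage under flooding; blackgrass sprayed postemergence at 2–18 cm (1- to 4-leaf stage). Plants kept in a greenhouse for 13 to 15 days, then visually rated against controls on 0 (no effect) to 100 (complete control).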

giant foxtail = experiment: Test B pre-/postemergence herbicide test; format: in vivo, Setaria faberi; conditions: for Foxtail, Giant plant response rating: postemergence
Outline: (§2)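 Plants compared with untreated controls 13–15 days post-treatment and given a visual 0–100 injury score. Applications: preemergence to seeds; postemergence at 1- to 4-leaf (2–18 cm); paddy species flooded, 2-leaf stage. Vehicle non-phytotoxic, surfactant included.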

velvetleaf = experiment: Test B pre-/postemergence herbicide test; format: in vivo, Abutilon theophrasti; conditions: for Velvetleaf plant response rating: scale 0 (no effect) to 100 (complete control)
Outline: as §2

[2] = tested on: smallflower umbrella sedge; experiment: Test C flooded paddy test; format: in vivo, Cyperus difformis
barnyardgrass [3] = experiment: Test B pre-/postemergence herbicide test; format: in vivo, Echinochloa crus-galli; conditions: for Barnyardgrass plant response rating: postemergence
Outline: (§3)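 Test chemicals in a non-phytotoxic solvent mixture with surfactant were applied preemergence to seeded species and postemergence to plants 2-18 cm tall (1- to 4-leaf stage); rice and barnyardgrass were also tested in a flooded paddy at the 2-leaf stage. Visual rating versus controls after 13-15 days in greenhouse, scale 0 (no effect) to 100 (complete control).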

pigweed = experiment: Test B pre-/postemergence herbicide test; format: in vivo, Amaranthus retroflexus; conditions: for Pigweed plant response rating: scale 0 (no effect) to 100 (complete control)
Outline: as §2

barnyardgrass [4] = experiment: Test B flooded paddy test; format: in vivo, Echinochloa crus-galli; conditions: 1000 g ai/ha, scale 0 to 100 (0 no effect, 100 complete control)
Outline: as §1

wheat = experiment: Test B postemergence herbicide test; format: in vivo, Triticum aestivum; parameters: key to Wheat plant response rating: 0 = no effect, 100 = complete control
Outline: (§4)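 Scale 0–100: zero equals no visible effect, 100 complete control, judged by eye relative to controls. Timing: 13 to 15 days in greenhouse post-treatment. Growth stage at spraying: two leaves (paddy) or one to four leaves, 2–18 cm (postemergence).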

cocklebur = experiment: Test B pre-/postemergence herbicide test; format: in vivo, Xanthium strumarium; conditions: for Cocklebur plant response rating: postemergence
Outline: as §3

lambsquarters = experiment: Test B pre-/postemergence herbicide test; format: in vivo, Chenopodium album; conditions: for Lambsquarters plant response rating: scale 0 (no effect) to 100 (complete control)
Outline: as §2

barnyardgrass [5] = experiment: Test C flooded paddy test; format: in vivo, Echinochloa crus-galli
Outline: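 Scoring by eye, 12–14 days post-treatment, greenhouse-held plants vs. controls; 0 no effect, 100 complete control. Sprayed at 1–4 leaves (2–18 cm); paddy barnyardgrass at 2 leaves, flooded.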

Surinam grass = experiment: Test B pre-/postemergence herbicide test; format: in vivo, Urochloa decumbens; conditions: for Surinam Grass plant response rating: scale 0 (no effect) to 100 (complete control)
Outline: as §2

blackgrass = experiment: Test B postemergence herbicide test; format: in vivo, Alopecurus myosuroides; conditions: postemergence
Outline: as §1

ducksalad [6] = experiment: Test C flooded paddy test; format: in vivo, Heteranthera limosa
[7] = tested on: small flower umbrella sedge; experiment: Test B flooded paddy test; format: in vivo, Cyperus difformis; conditions: 1000 g ai/ha, scale 0 to 100 (0 no effect, 100 complete control)
Outline: as §1

corn = experiment: Test B pre-/postemergence herbicide test; format: in vivo, Zea mays; conditions: for Corn plant response rating: postemergence
Outline: as §2

wild oat = experiment: Test B postemergence herbicide test; format: in vivo, Avena fatua; conditions: scale 0 (no effect) to 100 (complete control)
Outline: as §4

rice [8] = experiment: Test C flooded paddy test; format: in vivo, Oryza sativa
Outline: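 Postemergence sprays applied to plants 2 to 18 cm tall (1- to 4-leaf stage); paddy species grown to 2-leaf stage under flooding. After 12 to 14 days in greenhouse, visual rating versus untreated controls on 0–100 scale (0 no effect, 100 complete control).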

large crabgrass = experiment: Test B pre-/postemergence herbicide test; format: in vivo, Digitaria sanguinalis; conditions: for Crabgrass, Large plant response rating: postemergence
Outline: as §2

rice [9] = experiment: Test B flooded paddy test; format: in vivo, Oryza sativa; conditions: 1000 g ai/ha, scale 0 to 100 (0 no effect, 100 complete control)
Outline: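 Formulated test chemicals went onto postemergence plants measuring 2 to 18 cm, at one to four leaves. For the paddy assay, species had reached two leaves. Scoring took place 13–15 days later by eye, relative to untreated plants, using 0 for no effect up to 100 for full control.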

morningglory = experiment: Test B pre-/postemergence herbicide test; format: in vivo, Ipomoea coccinea; conditions: for Morningglory plant response rating: scale 0 (no effect) to 100 (complete control)
Outline: as §3

[10] = 125 g ai/ha, 0 is no effect, 100 is complete control, preemergence
[11] = 125 g ai/ha, visual rating, scale 0 (no effect) to 100 (complete control)
[12] = 500 g ai/ha, scale 0 to 100, 0 is no effect, 100 is complete control
[13] = 125 g ai/ha, visual rating, postemergence
[14] = 125 g ai/ha, scale 0 to 100 (0 no effect, 100 complete control)
[15] = 250 g ai/ha, scale of 0 to 100, 0 is no effect, 100 is complete control
[16] = 500 g ai/ha, visual rating after 12 to 14 days, scale 0 to 100 (0 no effect, 100 complete control)

CCc1nn(C(C)(C)C)nc1C(=O)Nc1cc(C(=O)N(C)CC)ccc1F [Compound 388]
50: Plant response rating (0 to 100 scale), Barnyardgrass (barnyardgrass [3]; [10]) | Pigweed plant response rating (pigweed; Postemergence, 500 g ai/ha) | Morningglory plant response rating (morningglory; Postemergence, 500 g ai/ha)
80: Ducksalad plant response rating (ducksalad [1]) | Plant response rating, Sedge, Umbrella [2, 16] | Plant response rating (0 to 100 scale), Pigweed (pigweed; [10]) | Plant response rating, Ducksalad (ducksalad [6]; [16]) | Plant response rating (0 to 100 scale), Crabgrass, Large (large crabgrass; [10])
70: Sedge, Umbrella plant response rating [2, 14] | Barnyardgrass plant response rating (barnyardgrass [4]) | Lambsquarters plant response rating (lambsquarters; Postemergence, 500 g ai/ha) | Sedge, Umbrella plant response rating [7] | Plant response rating, Rice (rice [8]; [16]) | Rice plant response rating (rice [9])
10: Foxtail, Giant plant response rating (giant foxtail; [11]) | Plant response rating (0 to 100 scale), Velvetleaf (velvetleaf; [10]) | Barnyardgrass plant response rating (barnyardgrass [3]; [12]) | Wheat plant response rating (wheat; Postemergence, 500 g ai/ha, scale 0 (no effect) to 100 (complete control)) | Cocklebur plant response rating (cocklebur; [11]) | Barnyardgrass plant response rating (barnyardgrass [5]; [14]) | Surinam Grass plant response rating (Surinam grass; [13]) | Corn plant response rating (corn; [11]) | Oat, Wild plant response rating (wild oat; Postemergence, 500 g ai/ha) | Morningglory plant response rating (morningglory; [13])
30: Foxtail, Giant plant response rating (giant foxtail; [12]) | Plant response rating (0 to 100 scale), Corn (corn; [10])
20: Plant response rating (0 to 100 scale), Foxtail, Giant (giant foxtail; [10]) | Velvetleaf plant response rating (velvetleaf; [13]) | Cocklebur plant response rating (cocklebur; [12]) | Plant response rating (0 to 100 scale), Surinam Grass (Surinam grass; [10]) | Surinam Grass plant response rating (Surinam grass; Postemergence, 500 g ai/ha) | Blackgrass plant response rating (blackgrass; [12]) | Corn plant response rating (corn; [12]) | Crabgrass, Large plant response rating (large crabgrass; [11]) | Crabgrass, Large plant response rating (large crabgrass; [12])
15: Rice plant response rating (rice [8]; 62 g ai/ha, scale 0 to 100)
0: Barnyardgrass plant response rating (barnyardgrass [3]; [11]) | Wheat plant response rating (wheat; 125 g ai/ha, visual rating, scale 0 (no effect) to 100 (complete control), postemergence) | Plant response rating (0 to 100 scale), Cocklebur (cocklebur; [10]) | Barnyardgrass plant response rating (barnyardgrass [5]; 62 g ai/ha, scale 0 to 100 (0 no effect, 100 complete control)) | Blackgrass plant response rating (blackgrass; [11]) | Ducksalad plant response rating (ducksalad [6]; 62 g ai/ha, scale 0 to 100) | Ducksalad plant response rating (ducksalad [6]; [14]) | Oat, Wild plant response rating (wild oat; [13]) | Plant response rating (0 to 100 scale), Morningglory (morningglory; [10])
40: Velvetleaf plant response rating (velvetleaf; Postemergence, 500 g ai/ha) | Pigweed plant response rating (pigweed; [13])
60: Lambsquarters plant response rating (lambsquarters; [13])
90: Wheat plant response rating (wheat; 500 g ai/ha, scale 0 to 100, 0 no effect, 100 complete control, preemergence) | Plant response rating (0 to 100 scale), Lambsquarters (lambsquarters; [10])
65: Sedge, Umbrella plant response rating ([2]; 62 g ai/ha, scale 0 to 100) | Plant response rating, Barnyardgrass (barnyardgrass [5]; [16]) | Rice plant response rating (rice [8]; [15])
75: Sedge, Umbrella plant response rating [2, 15]
45: Ducksalad plant response rating (ducksalad [6]; [15])
35: Barnyardgrass plant response rating (barnyardgrass [5]; [15])
55: Rice plant response rating (rice [8]; [14])
